# Marks after values point to notes of the source that are not given here.
# Assays:
# Format in all cases: in vivo, mouse
# LNCaP cell xenografts = assay: Biodistribution of radioactivity in tumor-bearing mice; conditions: for Radioactivity in Intestine / Radioactivity in Neck / Radioactivity in Stomach: LNCaP tumor-bearing BALB/c-nu/nu mice; for Radioactivity in Blood / Radioactivity in Bone / Radioactivity in Heart / Radioactivity in Kidney / Radioactivity in Liver / Radioactivity in Lung / Radioactivity in Muscle / Radioactivity in Pancreas / Radioactivity in Spleen / Radioactivity in Tumor: male, BALB/c-nu/nu, mouse, in vivo
# Procedure: Animal studies were conducted in accordance with the institutional guidelines approved by the Chiba University Animal Care Committee (Permit No. 4–183). Five-week-old male ddY mice and BALB/c-nu/nu mice were purchased from Japan SLC Inc. (Hamamatsu, Japan). LNCaP cells (5.0 × 10^6 cells) were suspended in 100 μL of PBS and Matrigel (BD Biosciences, Franklin Lakes, NJ, USA) in a 1:1 ratio. Tumor xenograft models were prepared via subcutaneous injection of this LNCaP cell suspension into BALB/c nude mice.
# Biodistribution studies were conducted using male BALB/c-nu/nu mice bearing LNCaP cell xenografts at 1 and 3 h postinjection of [^211At]At-NpG-D-PSMA (100 µL, 37 kBq) and 1 and 6 h postinjection of ^125I-labeled PSMA derivative (100 µL, 11.1 kBq). In the blocking study, [^125I]I-NpG-D-PSMA was coinjected with 2-PMPA (50 mg/kg weight) into tumor-bearing mice via the tail vein. At 1 h postinjection, the mice were sacrificed. The tissues of interest were excised and weighed, and the radioactivity counts in each tissue were determined using an auto-well gamma counter. Each value was expressed as the mean percent injected dose/g tissue ± SD for a group of 3–5 animals, except those for the stomach, intestine, and thyroid.
# [1] = Analysis of radiometabolites in urine by RP-HPLC; conditions: normal ddY mice, urine up to 6 h after injection
# Procedure: Urine samples were collected from 6-week-old ddY mice 6 h after injection of each ^125I-labeled PSMA derivative (100 µL, 370 kBq). After ethanol precipitation of proteins, the urine samples were filtered through a polycarbonate membrane (0.45 µm) and analyzed by RP-HPLC (System 2).
# [2] = Biodistribution of radioactivity in normal mice
# Procedure: Six-week-old male ddY mice were injected via the tail vein with each radiolabeled PSMA derivative. Animals were sacrificed and the organs were dissected at 10 min, 1 h, 3 h, and 6 h after injection. Metabolic cages were used for housing normal mice. The tissues of interest were excised and weighed, and the radioactivity counts in each tissue were determined using an auto-well gamma counter. Each value was expressed as the mean percent injected dose/g tissue ± SD for a group of 3–5 animals, except those for the stomach, intestine, and thyroid.
# [3] = normal ddY mice, i.v., 6 h, metabolic cages
smiles,measurement,setting,value
O=C(O)CCC(NC(=O)NC(CCCCNC(=O)C(Cc1ccc2ccccc2c1)NC(=O)C(CCC(=O)O)NC(=O)C(CCC(=O)O)NC(=O)COCC(CO)(CO)C[125I])C(=O)O)C(=O)O [[^125I]I-NpG-L-PSMA],Radioactivity in Intestine,LNCaP cell xenografts; 1 h,2.52 ± 0.29^a %ID
same,Radioactivity in Neck,LNCaP cell xenografts; 1 h,0.45 ± 0.13^a %ID
same,Radioactivity in Stomach,LNCaP cell xenografts; 1 h,0.23 ± 0.04 %ID
same,Radioactivity in Intestine,LNCaP cell xenografts; 6 h,1.87 ± 0.41 %ID
same,Radioactivity in Neck,LNCaP cell xenografts; 6 h,3.19 ± 1.28 %ID
same,Radioactivity in Stomach,LNCaP cell xenografts; 6 h,0.15 ± 0.07 %ID
same,Radioactivity in Blood,LNCaP cell xenografts; 1 h,0.66 ± 0.18 %ID/g
same,Radioactivity in Bone,LNCaP cell xenografts; 1 h,0.47 ± 0.12^a %ID/g
same,Radioactivity in Heart,LNCaP cell xenografts; 1 h,1.62 ± 0.87 %ID/g
same,Radioactivity in Kidney,LNCaP cell xenografts; 1 h,223 ± 5.91^a %ID/g
same,Radioactivity in Liver,LNCaP cell xenografts; 1 h,1.85 ± 0.50^a %ID/g
same,Radioactivity in Lung,LNCaP cell xenografts; 1 h,2.78 ± 0.93 %ID/g
same,Radioactivity in Muscle,LNCaP cell xenografts; 1 h,0.64 ± 0.21^a %ID/g
same,Radioactivity in Pancreas,LNCaP cell xenografts; 1 h,1.17 ± 0.38 %ID/g
same,Radioactivity in Spleen,LNCaP cell xenografts; 1 h,37.0 ± 10.4 %ID/g
same,Radioactivity in Tumor,LNCaP cell xenografts; 1 h,9.19 ± 1.89^a %ID/g
same,Radioactivity in Blood,LNCaP cell xenografts; 6 h,0.11 ± 0.03^a %ID/g
same,Radioactivity in Bone,LNCaP cell xenografts; 6 h,0.09 ± 0.02 %ID/g
same,Radioactivity in Heart,LNCaP cell xenografts; 6 h,0.22 ± 0.06^a %ID/g
same,Radioactivity in Kidney,LNCaP cell xenografts; 6 h,226 ± 30.0 %ID/g
same,Radioactivity in Liver,LNCaP cell xenografts; 6 h,0.44 ± 0.02^a %ID/g
same,Radioactivity in Lung,LNCaP cell xenografts; 6 h,0.59 ± 0.12^a %ID/g
same,Radioactivity in Muscle,LNCaP cell xenografts; 6 h,0.27 ± 0.31 %ID/g
same,Radioactivity in Pancreas,LNCaP cell xenografts; 6 h,0.26 ± 0.08^a %ID/g
same,Radioactivity in Spleen,LNCaP cell xenografts; 6 h,4.55 ± 1.18^a %ID/g
same,Radioactivity in Tumor,LNCaP cell xenografts; 6 h,11.0 ± 2.68^a %ID/g
same,Form of radioactivity excreted in urine,[1],intact [^125I]I-NpG-L-PSMA and as radiometabolites
same,Radioactivity in Blood,"[2]; normal ddY mice, i.v., 10 min",1.48 ± 0.20^b %ID/g
same,Radioactivity in Bone,"[2]; normal ddY mice, i.v., 10 min",0.68 ± 0.18^a %ID/g
same,Radioactivity in Heart,"[2]; normal ddY mice, i.v., 10 min",1.12 ± 0.24 %ID/g
same,Radioactivity in Intestine,"[2]; normal ddY mice, i.v., 10 min",2.49 ± 0.66 %ID
same,Radioactivity in Kidney,"[2]; normal ddY mice, i.v., 10 min",92.3 ± 11.0^b %ID/g
same,Radioactivity in Liver,"[2]; normal ddY mice, i.v., 10 min",1.64 ± 0.33^a %ID/g
same,Radioactivity in Lung,"[2]; normal ddY mice, i.v., 10 min",2.15 ± 0.49^a %ID/g
same,Radioactivity in Muscle,"[2]; normal ddY mice, i.v., 10 min",0.62 ± 0.18^a %ID/g
same,Radioactivity in Neck,"[2]; normal ddY mice, i.v., 10 min",0.34 ± 0.09^a %ID
same,Radioactivity in Pancreas,"[2]; normal ddY mice, i.v., 10 min",0.80 ± 0.16 %ID/g
same,Radioactivity in Spleen,"[2]; normal ddY mice, i.v., 10 min",2.23 ± 1.10 %ID/g
same,Radioactivity in Stomach,"[2]; normal ddY mice, i.v., 10 min",0.33 ± 0.09 %ID
same,Radioactivity in Blood,"[2]; normal ddY mice, i.v., 1 h",0.26 ±0.01 %ID/g
same,Radioactivity in Bone,"[2]; normal ddY mice, i.v., 1 h",0.36 ± 0.43 %ID/g
same,Radioactivity in Heart,"[2]; normal ddY mice, i.v., 1 h",0.60 ± 0.37 %ID/g
same,Radioactivity in Intestine,"[2]; normal ddY mice, i.v., 1 h",3.40 ± 0.86^a %ID
same,Radioactivity in Kidney,"[2]; normal ddY mice, i.v., 1 h",113.6 ±3.86^ab %ID/g
same,Radioactivity in Liver,"[2]; normal ddY mice, i.v., 1 h",0.99 ± 0.14^ab %ID/g
same,Radioactivity in Lung,"[2]; normal ddY mice, i.v., 1 h",0.69 ± 0.16^ab %ID/g
same,Radioactivity in Muscle,"[2]; normal ddY mice, i.v., 1 h",0.14 ± 0.03 %ID/g
same,Radioactivity in Neck,"[2]; normal ddY mice, i.v., 1 h",0.07 ± 0.03^a %ID
same,Radioactivity in Pancreas,"[2]; normal ddY mice, i.v., 1 h",1.40 ± 1.78 %ID/g
same,Radioactivity in Spleen,"[2]; normal ddY mice, i.v., 1 h",1.05 ± 0.19^ab %ID/g
same,Radioactivity in Stomach,"[2]; normal ddY mice, i.v., 1 h",0.35 ± 0.30 %ID
same,Radioactivity in Blood,"[2]; normal ddY mice, i.v., 3 h",0.04 ± 0.01 %ID/g
same,Radioactivity in Bone,"[2]; normal ddY mice, i.v., 3 h",0.09 ± 0.04 %ID/g
same,Radioactivity in Heart,"[2]; normal ddY mice, i.v., 3 h",0.06 ± 0.01 %ID/g
same,Radioactivity in Intestine,"[2]; normal ddY mice, i.v., 3 h",4.96 ± 0.17^ab %ID
same,Radioactivity in Kidney,"[2]; normal ddY mice, i.v., 3 h",38.6 ± 11.9^a %ID/g
same,Radioactivity in Liver,"[2]; normal ddY mice, i.v., 3 h",0.43 ± 0.01^ab %ID/g
same,Radioactivity in Lung,"[2]; normal ddY mice, i.v., 3 h",0.21 ± 0.03^ab %ID/g
same,Radioactivity in Muscle,"[2]; normal ddY mice, i.v., 3 h",0.10 ± 0.05 %ID/g
same,Radioactivity in Neck,"[2]; normal ddY mice, i.v., 3 h",0.01 ± 0.00 %ID
same,Radioactivity in Pancreas,"[2]; normal ddY mice, i.v., 3 h",0.12 ± 0.03 %ID/g
same,Radioactivity in Spleen,"[2]; normal ddY mice, i.v., 3 h",0.22 ± 0.07^ab %ID/g
same,Radioactivity in Stomach,"[2]; normal ddY mice, i.v., 3 h",0.08 ± 0.02^b %ID
same,Radioactivity in Blood,"[2]; normal ddY mice, i.v., 6 h",0.03 ± 0.02 %ID/g
same,Radioactivity in Bone,"[2]; normal ddY mice, i.v., 6 h",0.05 ± 0.01 %ID/g
same,Radioactivity in Heart,"[2]; normal ddY mice, i.v., 6 h",0.05 ± 0.05 %ID/g
same,Radioactivity in Intestine,"[2]; normal ddY mice, i.v., 6 h",4.60 ± 2.56 %ID
same,Radioactivity in Kidney,"[2]; normal ddY mice, i.v., 6 h",21.2 ± 9.70^a %ID/g
same,Radioactivity in Liver,"[2]; normal ddY mice, i.v., 6 h",0.53 ±0.02^ab %ID/g
same,Radioactivity in Lung,"[2]; normal ddY mice, i.v., 6 h",0.09 ± 0.03^a %ID/g
same,Radioactivity in Muscle,"[2]; normal ddY mice, i.v., 6 h",0.05 ± 0.01 %ID/g
same,Radioactivity in Neck,"[2]; normal ddY mice, i.v., 6 h",0.02 ± 0.01 %ID
same,Radioactivity in Pancreas,"[2]; normal ddY mice, i.v., 6 h",0.07 ± 0.04 %ID/g
same,Radioactivity in Spleen,"[2]; normal ddY mice, i.v., 6 h",0.11 ± 0.03^a %ID/g
same,Radioactivity in Stomach,"[2]; normal ddY mice, i.v., 6 h",0.23 ± 0.29 %ID
same,Radioactivity in Feces,[2]; [3],0.45 ± 0.48 %ID
same,Radioactivity in Urine,[2]; [3],53.3 ± 5.56 %ID
same,Accumulation in the stomach and thyroid (stability against deiodination),[2]; normal mice,low accumulation
